Measurements from patent US20230416248A1, “COMPOUNDS AND USES THEREOF” (Foghorn Therapeutics Inc., priority 2020, published 2023).

Target: T1, BRM (Homo sapiens, UniProt P51531)
T1 construct: made in house; host or cells: High Five insect cells
Assay: ATPase catalytic activity of BRM, ADP-Glo in vitro biochemical assay
Conditions: for IC50: 30 nM BRM, 400 μM ATP
Experimental: The ATPase catalytic activity of BRM or BRG-1 was measured by an in vitro biochemical assay using ADP-Glo™ (Promega, V9102). The ADP-Glo™ kinase assay is performed in two steps once the reaction is complete. The first step is to deplete any unconsumed ATP in the reaction. The second step is to convert the reaction product ADP to ATP, which will be utilized by the luciferase to generate luminesce and be detected by a luminescence reader, such as Envision.
The assay reaction mixture ([…]) contains 30 nM of BRM or BRG-1, 20 nM salmon sperm DNA (from Invitrogen, UfraPure™ Salmon Sperm DNA Solution, cat #15632011), and 400 μM of ATP in the ATPase assay buffer, which comprises of 20 mM Tris, pH 8, 20 mM MgCl2, 50 mM NaCl, 0.1% Tween-20, and 1 mM fresh DTT (Piercer™ DTT (Dithiothreitol), cat #20290). The reaction is initiated by the addition of the 2.5 μL ATPase solution to 2.5 μL ATP/DNA solution on low volume white Proxiplate-384 plus plate (PerkinElmer, cat #6008280) and incubates at room temperature for 1 hour. Then, following addition of 5 μL of ADP-Glo™ Reagent provided in the kit, the reaction incubates at room temperature for 40 minutes. Then, 10 μL of Kinase Detection Reagent provided in the kit is added to convert ADP to ATP, and the reaction incubates at room temperature for 60 minutes. Finally, luminescence measurement is collected with a plate-reading luminometer, such as Envision.

[1] = ATPase catalytic activity, ADP-Glo

T1 sequence (P51531 whole entry): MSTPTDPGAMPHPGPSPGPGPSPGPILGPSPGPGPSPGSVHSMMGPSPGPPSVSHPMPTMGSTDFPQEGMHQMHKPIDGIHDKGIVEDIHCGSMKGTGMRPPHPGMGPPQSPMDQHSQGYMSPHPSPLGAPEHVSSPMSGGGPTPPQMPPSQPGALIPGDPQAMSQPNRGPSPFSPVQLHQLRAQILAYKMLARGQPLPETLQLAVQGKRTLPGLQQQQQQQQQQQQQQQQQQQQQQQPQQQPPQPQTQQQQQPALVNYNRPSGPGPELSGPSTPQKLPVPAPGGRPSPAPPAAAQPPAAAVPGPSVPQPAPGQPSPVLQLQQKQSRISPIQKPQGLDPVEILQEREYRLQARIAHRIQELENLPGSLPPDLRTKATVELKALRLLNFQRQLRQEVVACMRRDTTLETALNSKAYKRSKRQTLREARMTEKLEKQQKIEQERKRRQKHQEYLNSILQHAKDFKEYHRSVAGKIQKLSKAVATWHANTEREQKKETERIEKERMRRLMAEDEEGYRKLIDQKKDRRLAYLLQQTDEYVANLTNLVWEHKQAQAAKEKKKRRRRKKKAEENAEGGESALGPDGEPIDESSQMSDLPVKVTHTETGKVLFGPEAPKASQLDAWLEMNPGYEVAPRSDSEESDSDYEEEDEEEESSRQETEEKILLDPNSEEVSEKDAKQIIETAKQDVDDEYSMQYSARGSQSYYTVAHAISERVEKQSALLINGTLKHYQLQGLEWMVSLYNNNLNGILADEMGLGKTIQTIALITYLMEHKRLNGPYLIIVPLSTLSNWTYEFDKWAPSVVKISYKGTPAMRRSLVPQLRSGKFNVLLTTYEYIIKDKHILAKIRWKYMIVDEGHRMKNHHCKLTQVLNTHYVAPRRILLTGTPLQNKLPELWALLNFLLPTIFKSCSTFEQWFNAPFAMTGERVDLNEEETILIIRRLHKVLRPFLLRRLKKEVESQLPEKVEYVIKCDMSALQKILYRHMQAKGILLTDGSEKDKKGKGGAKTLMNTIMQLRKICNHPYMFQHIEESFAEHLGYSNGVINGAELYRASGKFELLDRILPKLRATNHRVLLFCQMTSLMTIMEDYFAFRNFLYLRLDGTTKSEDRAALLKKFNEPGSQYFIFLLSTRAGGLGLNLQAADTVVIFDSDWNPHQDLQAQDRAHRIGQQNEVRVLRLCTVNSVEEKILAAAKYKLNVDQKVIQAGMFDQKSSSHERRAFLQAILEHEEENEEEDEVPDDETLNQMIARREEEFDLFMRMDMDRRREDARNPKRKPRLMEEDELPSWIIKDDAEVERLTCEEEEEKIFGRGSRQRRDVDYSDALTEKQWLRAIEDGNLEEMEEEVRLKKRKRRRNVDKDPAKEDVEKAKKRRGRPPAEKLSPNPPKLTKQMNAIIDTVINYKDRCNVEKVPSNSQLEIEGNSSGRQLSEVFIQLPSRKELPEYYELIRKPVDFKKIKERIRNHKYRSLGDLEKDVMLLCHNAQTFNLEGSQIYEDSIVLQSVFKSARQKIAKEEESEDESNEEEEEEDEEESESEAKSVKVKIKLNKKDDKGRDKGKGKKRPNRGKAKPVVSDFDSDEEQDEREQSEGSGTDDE

SMILES	IC50 [1]	Ratio* (ratio of BRG1 IC50 to BRM IC50)	Ratio* (ratio BRG1 IC50 / BRM IC50)	IC50 (ADP-Glo ATPase assay)
Cc1cc(C(=O)NCc2cc3nc(-c4cccc(N5C[C@@H](C)O[C@@H](C)C5)n4)ccc3cn2)cc2c1OCC[C@@H](C)S2(=O)=O [Compound 461]	1590 nM	3.15	–	–
CC1CN(c2cccc(-c3ccc4cnc(CNC(=O)c5cnc6c(c5)S(=O)(=O)CCC5CC65)cc4n3)n2)CC(C)O1 (centres unmarked) [Compound 577]	–	3.78	–	–
C[C@@H]1CN(c2cccc(-c3ccc4cnc(CNC(=O)c5ccc6c(c5)S(=O)(=O)[C@H](C)CO6)cc4n3)n2)C[C@H](C)O1 [Compound 684]	484 nM	10.33	–	–
COCCN1CCc2cccc(-c3ccc4cnc(CNC(=O)c5ccc6c(c5)S(=O)(=O)CCOC6)cc4n3)c2C1 [Compound 674]	3780 nM	1.32	–	–
O=C(NCc1cc2cc(N3CCOc4cc(C5CC5)cnc43)ncc2cn1)c1ccc2c(c1)S(=O)(=O)CCOC2 [Compound 811]	–	–	1.00	–
O=C(NCc1cc2nc(N3CCc4nccnc4C3)ccc2cn1)c1ccc2c(c1)S(=O)(=O)CCOC2 [Compound 546]	1820 nM	2.75	–	–
CO[C@@H](c1ccc2c(n1)N(c1ccc3cnc(CNC(=O)c4ccc5c(c4)S(=O)(=O)CCOC5)cc3n1)CCC2)C1CC1 [Compound 663]	673 nM	7.43	–	–
COCCN(c1ccc(C2CC2)cn1)c1ccc2cnc(CNC(=O)c3ccc4c(c3)S(=O)(=O)CCOC4)cc2n1 [Compound 833]	–	–	2.15	2320 nM
C[C@@H]1CN(c2cccc(-c3ccc4cnc(CNC(=O)c5ccc6c(c5)S(=O)(=O)C5(CC6)CC5)cc4n3)n2)C[C@H](C)O1 [Compound 531]	–	28.30	–	–
CC1CN(c2cccc(-c3ccc4cnc(CNC(=O)c5ccc6c(c5)S(=O)(=O)C(C)COC6C)cc4n3)n2)CC(C)O1 (centres unmarked) [Compound 535]	637 nM	7.84	–	–
O=C(NCc1cc2nc(N3C(=O)Cc4ccccc43)ccc2cn1)c1ccc2c(c1)S(=O)(=O)CCOC2 [Compound 356]	3310 nM	1.51	–	–
O=C(NCc1cc2nc(N3CCCc4ccc(C(F)F)nc43)ccc2cn1)c1ccc2c(c1)S(=O)(=O)CCOC2 [Compound 571]	–	6.87	–	–
C[C@@H]1COCc2ncc(C(=O)NCc3cc4nc(-c5cccc(C6CC6)n5)ccc4cn3)cc2S1(=O)=O [Compound 455]	–	1.00	–	–
COCCN(c1cc(C2CC2)ccn1)c1ccc2cnc(CNC(=O)c3ccc4c(c3)S(=O)(=O)CCOC4)cc2n1 [Compound 829]	–	–	3.02	1660 nM
CC1CN(c2cccc(-c3ccc4cnc(CNC(=O)c5cnc6c(c5)S(=O)(=O)CCC5CC65)cc4n3)n2)CC(C)O1 (centres unmarked) [Compound 579]	–	4.40	–	–
CS(=O)(=O)c1cc(C(=O)NCc2cc3nc(N4CCCc5ccc(C6CC6)nc54)ccc3cn2)cnc1C(F)F [Compound 721]	–	–	26.60	188 nM
Cn1cccc(-c2ccc3cnc(CNC(=O)c4ccc5c(c4)S(=O)(=O)CCOC5)cc3n2)c1=O [Compound 826]	–	–	1.56	3200 nM
O=C(NCc1cc2nc(N3CCCc4ccc(C(F)F)nc43)ccc2cn1)c1ccc2c(c1)S(=O)(=O)CCOC2 [Compound 563]	–	16.52	–	–
CCOc1cc(C)cc(-c2ccc3cnc(CNC(=O)c4ccc5c(c4)S(=O)(=O)[C@@H](C)COC5)cc3n2)n1 [Compound 417]	253 nM	19.79	–	–
C[C@@H]1CN(c2cccc(-c3ccc4cnc(CNC(=O)c5ccc6c(c5)S(=O)(=O)CC[C@H](C(F)F)O6)cc4n3)n2)C[C@H](C)O1 [Compound 582]	1240 nM	4.05	–	–
CN1CC[C@@H](Oc2cccc(-c3ccc4cnc(CNC(=O)c5ccc6c(c5)S(=O)(=O)CCOC6)cc4n3)n2)C1 [Compound 328]	843 nM	5.93	–	–

SMILES	IC50 [1]	Ratio* (ratio of BRG1 IC50 to BRM IC50)	Ratio* (ratio BRG1 IC50 / BRM IC50)	IC50 (ADP-Glo ATPase assay)
CC[C@H]1COCc2ccc(C(=O)NCc3cc4nc(-c5cccc(N6C[C@@H](C)O[C@@H](C)C6)n5)ccc4cn3)cc2S1(=O)=O [Compound 360]	974 nM	5.14	–	–
C[C@@H]1CN(c2cccc(-c3ccc4cnc(CNC(=O)c5ccc6c(c5)S(=O)(=O)CCC(C)(C)O6)cc4n3)n2)C[C@H](C)O1 [Compound 559]	3930 nM	1.27	–	–
Cc1cc(C(=O)NCc2cc3nc(-c4cccc(N5C[C@@H](C)O[C@@H](C)C5)n4)ccc3cn2)cc2c1O[C@H](C)CCS2(=O)=O [Compound 541]	131 nM	38.11	–	–
Cc1cc(C(=O)NCc2cc3nc(-c4cccc(N5C[C@@H](C)O[C@@H](C)C5)n4)ccc3cn2)cc2c1COC[C@@H](C)S2(=O)=O [Compound 462]	1720 nM	2.92	–	–
C[C@@H]1CN(c2cccc(-c3ccc4cnc(CNC(=O)c5cc(C6CCC6)c6c(c5)S(=O)(=O)CCOC6)cc4n3)n2)C[C@H](C)O1 [Compound 631]	1190 nM	4.19	–	–
C[C@@H]1CCS(=O)(=O)c2cc(C(=O)NCc3cc4nc(-c5cccc(N6C[C@@H](C)O[C@@H](C)C6)n5)ccc4cn3)cc(Cl)c2O1 [Compound 505]	539 nM	9.28	–	–
COCCN(c1cccc(C2CC2)n1)c1ccc2cnc(CNC(=O)c3ccc4c(c3)S(=O)(=O)CCOC4)cc2n1 [Compound 840]	–	–	1.25	4000 nM
COc1c(-c2ccc3cnc(CNC(=O)c4ccc5c(c4)S(=O)(=O)CCOC5)cc3n2)cccc1C(F)F [Compound 343]	1350 nM	3.71	–	–
O=C(NCc1cc2nc(-c3cccc4c3CN(C3CC3)CC4)ccc2cn1)c1ccc2c(c1)S(=O)(=O)CCOC2 [Compound 685]	715 nM	6.99	–	–
CC[C@H]1CCS(=O)(=O)c2cc(C(=O)NCc3cc4nc(-c5cccc(N6C[C@@H](C)O[C@@H](C)C6)n5)ccc4cn3)ccc2O1 [Compound 584]	793 nM	6.31	–	–
O=C(NCc1cc2nc(-c3ccc(OC(F)F)cn3)ccc2cn1)c1ccc2c(c1)S(=O)(=O)CCOC2 [Compound 849]	–	–	8.25	606 nM
COCCN(c1ccnc(C2CC2)n1)c1ccc2cnc(CNC(=O)c3ccc4c(c3)S(=O)(=O)CCOC4)cc2n1 [Compound 839]	–	–	1.00	–
C[C@@H]1CN(c2cccc(-c3ccc4cnc(CNC(=O)c5cc(Cl)c6c(c5)S(=O)(=O)[C@H](C)COC6)cc4n3)n2)C[C@H](C)O1 [Compound 432]	1500 nM	3.34	–	–
O=C(NCc1cc2nc(C34CC3CCc3cccnc34)ccc2cn1)c1ccc2c(c1)S(=O)(=O)CCOC2 (centres unmarked) [Compound 762]	–	–	1.00	–
C[C@@H]1CN(c2cccc(-c3ccc4cnc(CNC(=O)c5ccc6c(c5)S(=O)(=O)[C@@H](C)CO[C@@H]6C)cc4n3)n2)C[C@H](C)O1 [Compound 517]	429 nM	11.66	–	–
C[C@@H]1CN(c2cccc(-c3ccc4cnc(CNC(=O)c5cnc6c(c5)S(=O)(=O)[C@H](C)CC6)cc4n3)n2)C[C@H](C)O1 [Compound 596]	681 nM	7.34	–	–
C[C@@H]1CN(c2cccc(-c3ccc4cnc(CNC(=O)c5cc(Cl)c6c(c5)S(=O)(=O)CCO[C@H]6C)cc4n3)n2)C[C@H](C)O1 [Compound 547]	293 nM	17.08	–	–
C[C@@H]1CN(c2cccc(-c3ccc4cnc(CNC(=O)c5cccc(S(=O)(=O)C6CC6)c5)cc4n3)n2)C[C@H](C)O1 [Compound 371]	196 nM	25.45	–	–
C[C@@H]1CN(c2cccc(-c3ccc4cnc(CNC(=O)c5ccc6c(c5)S(=O)(=O)[C@H](C)CN6C)cc4n3)n2)C[C@H](C)O1 [Compound 560]	498 nM	10.04	–	–
C[C@@H]1CN(c2cccc(-c3ccc4cnc(CNC(=O)c5cc(C6(C)CC6)c6c(c5)S(=O)(=O)CCOC6)cc4n3)n2)C[C@H](C)O1 [Compound 351]	–	1.00	–	–
O=C(NCc1cc2nc(-c3cccc4c3CN(C3COC3)CC4)ccc2cn1)c1ccc2c(c1)S(=O)(=O)CCOC2 [Compound 671]	4000 nM	1.25	–	–
